In the METLIN SMRT retention time set (Domingo-Almenara et al. 2019):

Experiment: gradient 5% acetonitrile 3 min, to 50% in 2 min, to 85% in 15 min, held 3 min, 100 µL/min
Settings: column: Zorbax Extend-C18 2.1 x 50 mm; eluents: water / acetonitrile, 0.1% formic acid
Summary of the method: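 In both positive and negative ionization mode, a quadrupole time-of-flight mass spectrometer coupled to HPLC analyzed pure standards run in mixtures of ~100 molecules. The Zorbax Extend-C18 column (2.1 × 50 mm, 1.8 μm) was operated at 100 μL/min with water and acetonitrile, each containing 0.1% formic acid. The dead volume was 40 μL and the dwell volume 900 μL. Retention time came from adduct peaks that were computationally picked and individually inspected by hand.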

SMILES	RP-LC retention time [s]
COc1ccc(-c2ccnc3nc(CCc4ccccc4)nn23)c(F)c1	963
COc1ccccc1NC(=O)NCC(c1cccnc1)c1c[nH]c2ccccc12 (stereo not drawn)	657
CCc1nnc(-c2ccc3ccn(CC(=O)NCCc4cccs4)c3c2)o1	781
Cc1cccc(NC(=O)Cn2cnc3c(sc4nc(-c5ccccc5)ccc43)c2=O)c1C	1020
COc1cccc(CNC(=O)c2nsc(C(=O)N3CCN(c4ccccn4)CC3)c2N)c1	660
COc1ccc(NC(=O)C2CCCN(c3nc4c(s3)c(C)nn4-c3ccccc3)C2)cc1Cl (stereo not drawn)	1190
O=C(NCc1ccc(F)cc1Cl)C1CCCN(c2nn3c(=O)c4c(nc3s2)CCCC4)C1 (stereo not drawn)	827
CCCn1cc(-c2ccncc2)cc1C(=O)NCc1ccc(F)cc1	680
CCN1C(=O)c2cccnc2Sc2cc(NC(=O)c3cc(C)ccc3C)ccc21	898
COc1ccc(C)cc1NC(=O)Cn1nc2nc(Nc3ccc(C)cc3)ccn2c1=O	862
CCOc1ccc2nc(Nc3ncc4c(n3)CC(c3ccccc3)CC4=O)nc(C)c2c1 (stereo not drawn)	831
COc1nc2ccccc2nc1N1CCCC(C(=O)N2CCN(c3ccccc3)CC2)C1 (stereo not drawn)	1220
CC(C)c1noc(-c2ccc(-n3cnc(C(=O)N4CCOCC4)c3)nc2)n1	745
Cc1ccsc1C(=O)Nc1ccc(N2CCN(c3ccccc3)C2=O)nc1	893
CC1(C(=O)Nc2ccc(Cl)cc2F)Oc2cccnc2NC1=O (stereo not drawn)	774
CC(=O)N1CCc2ccccc2C1C(=O)NC1CCCCCC1 (stereo not drawn)	831
O=C(CCC(=O)N1CC2CCCN2c2ccccc21)NCc1ccc2c(c1)OCO2 (stereo not drawn)	855
CC(C)c1nnc(-c2ccc(S(=O)(=O)N3CCN(C4CCCCC4)CC3)o2)o1	644
CCn1ccc(C(=O)NC2CCCN(c3cc(N(C)C)ncn3)C2)n1 (stereo not drawn)	590
O=C(c1ccc(OCC2CCN(C(=O)c3ccoc3)CC2)cc1)N1CCOCC1	697
O=C(OCCc1ccccn1)c1cn(-c2ccccc2)c(=O)c2ccccc12	696

SMILES	RP-LC retention time [s]
O=C(NCCc1ccc(Cl)cc1)c1nnc(-c2ccc(S(=O)(=O)N3CCCC3)cc2)o1	1010
COc1ccccc1OCC(=O)N1CCN(c2nc(CN3CCOCC3)cs2)CC1	613
COCCNC(=O)N1CCCN(C2=NS(=O)(=O)C(c3cccc(Cl)c3)=C2C)CC1	706
O=C(Nc1c(F)cccc1F)N1CCc2nc(-c3ccc(Cl)cc3)ncc2C1	954
CCCc1cc(N2CCN(C(=O)c3ccc(OC)nc3)CC2)nc2nnc(CC)n12	623
COC(=O)C1CCC(=O)N1C(c1ccc(OC)cc1)c1cc(OC)c(OC)c(OC)c1 (stereo not drawn)	753
O=C(Nc1cccc(C(F)(F)F)c1)N1CCC(N2C[C@H]3C[C@H](C2)[C@H]2CCCC(=O)N2C3)CC1	653
CCN1CCN(C(=O)C2CCN(c3nc4ccc(-c5cccs5)nc4s3)CC2)CC1	586
CCCn1c(=O)sc2cc(S(=O)(=O)N3CCC(C(=O)Nc4cccc(C)c4)CC3)ccc21	1010
O=c1ccn(-c2cccc(F)c2)nc1-c1nc(-c2ccc(Br)cc2)no1	1000
CCn1c(=O)c(N2CCCC(C(=O)NCCc3c[nH]c4ccc(C)cc34)C2)nc2ccccc21 (stereo not drawn)	1030
Cc1ccc(NC(=O)N2CCC(n3cnnc3C3CC3)C2)cc1Cl (stereo not drawn)	672
CCOc1cc(C(=O)NC2CCN(c3cc(-c4ccc(F)cc4)[nH]n3)C2)cc(OCC)c1OCC (stereo not drawn)	858
Cc1ccc(-n2c(CN3CCN(C(=O)NC4CCCC4)CC3)nc3cccnc32)cc1	663
CCc1noc(NC(C)=O)c1-c1ccc(C)c(S(=O)(=O)Nc2ccc3c(c2)OCCO3)c1	784
CNC(=O)Nc1ccc(C2(C(=O)Nc3cc(C)cc(C)c3)CCC2)cc1	822
Cc1ccc(N2C(=O)CN(S(C)(=O)=O)CC2(C)C(=O)NCc2ccc(F)cc2)cc1C (stereo not drawn)	818
Cc1oc(-c2ccccc2)nc1Cn1cnc2nc3c(cc2c1=O)CC(C)CC3 (stereo not drawn)	1010
O=C(c1cccs1)N1CCN(c2ccc(-c3noc(C4CCC4)n3)cc2)CC1	1070
Cc1cc(F)cc2c(=O)c3c([nH]c12)CCN(CC(=O)Nc1ccccc1)C3	616
Cc1ccccc1CNC(=O)C1(C)CCCN(C(=O)Nc2ccc(Br)cc2)C1 (stereo not drawn)	1020

SMILES	RP-LC retention time [s]
CC1CCN(S(=O)(=O)N2CCCC(C(=O)Nc3ccccc3C(=O)c3ccccc3)C2)CC1 (stereo not drawn)	963
CCC(C)n1c(=O)c2ccccc2n(Cc2nc(-c3ccc(OC)c(OC)c3)no2)c1=O (stereo not drawn)	1060
COc1ccc(-c2nnc(-c3cccnc3N3CCN(c4ccc(C)cc4)CC3)o2)cc1	1060
CC[C@@]1(O)C(=O)OCc2c1cc1n(c2=O)Cc2cc3c(NC(=O)CN)cccc3nc2-1	626
CCOc1ccc(Br)cc1C(=O)N1CCNC(=O)C1CC(=O)OC1CCCCC1 (stereo not drawn)	876
CCOc1ccc(CC(=O)NC2CCN(c3cc(-c4ccc(F)cc4)[nH]n3)C2)cc1OCC (stereo not drawn)	679
CNC(=O)C1CCN(C(=O)Nc2ccc(NC(=O)Nc3ccc(C)cc3)cc2)CC1	658
O=S(=O)(NCC(c1cccnc1)c1c[nH]c2ccccc12)c1ccc(Cl)c(Cl)c1 (stereo not drawn)	787
Cc1c(Cl)cccc1N1C(=O)CN(S(C)(=O)=O)CC1(C)C(=O)NCc1ccc(F)cc1 (stereo not drawn)	814
COCc1cc(=O)n(CC(=O)NCc2ccccc2)c(N)n1	595
Cc1ccc(NC(=O)C2CCCN(S(=O)(=O)c3c[nH]c(C(=O)N4CCCCCC4)c3)C2)cc1C (stereo not drawn)	871
O=C(CCc1csc(NS(=O)(=O)c2ccccc2)n1)Nc1nc2ccccc2s1	730
O=C1CCc2cc(S(=O)(=O)NCCc3ccccc3)cc3c2N1CCC3	840
COc1ccc(N2CCN(c3cc(SCC(=O)Nc4ccc(C)cc4)ncn3)CC2)cc1	966
CCOc1ccccc1-n1ccn(Cc2nc(-c3ccccc3)no2)c(=O)c1=O	848
COc1cccc(C2c3c(oc4ccc(C)cc4c3=O)C(=O)N2CCCN2CCOCC2)c1OC (stereo not drawn)	808
CC1CCN(S(=O)(=O)c2ccc(C(=O)Nc3nc4c(s3)CCc3ccccc3-4)cc2)CC1	1290
Fc1ccc(Cc2noc(-c3nc(-c4ccncc4)no3)n2)cc1	943
O=C(Cc1c[nH]c2ccccc12)NC1(c2nc(-c3ccncc3)no2)CCCCC1	807
CN(C(=O)Cn1cnc2c(-c3ccc(Cl)cc3)csc2c1=O)c1ccc(F)cc1	1180
COc1ccccc1NC(=O)N1CCCC(Cn2cnc3cccnc32)C1 (stereo not drawn)	667
